{
  "source": "patent US12370167B2",
  "about": "“Blood-brain barrier permeability regulator and use thereof” (ZHEJIANG UNIVERSITY, priority 2019, dated 2025)",
  "key": {"[1]": {"tested_on": "blood-brain barrier permeability", "assay": "Evans blue permeation into the brain after SC79", "assay_type": "in vivo, BABL/c nude mice", "procedure": "FIG. 10: In vivo regulation of increase in the blood-brain barrier permeability and increase in the amount of Evans blue permeated into the brain by SC79. SC79 was injected into tail veins of tumor-bearing animals at an administration dose of 5 mg/kg and 10 mg/kg, respectively. After 24 hours, an Evans blue solution was injected into tail veins at an administration dose of 5 mg/kg. After 4 hours, the intact brain of the nude mice was taken by cardiac perfusion.\nFIG. 11: In vivo time-dependent regulation of increase in the blood-brain barrier permeability by SC79. SC79 was injected into tail veins of tumor-bearing animals at an administration dose of 5 mg/kg and 10 mg/kg, respectively. After 0 hour, 0.5 hour, and 24 hours, an Evans blue solution was injected into tail veins at an administration dose of 5 mg/kg. After 4 hours, the intact brain of the nude mice was taken by cardiac perfusion.\n(§1) Male BABL/c nude mice (20+2 g) were used as the model animals. SC79 diluted with 0.2% injection grade Tween 80 solution was injected into tail veins at an administration dose of 5 mg/kg, 10 mg/kg. After 24 hours, an Evans blue solution was injected into tail veins at an administration dose of 5 mg/kg. After 4 hours, the intact brain of the nude mice was taken by cardiac perfusion. The distribution intensity of Evans blue in the brain tissue was qualitatively observed with a small animal live imaging instrument.\nas §1, with “nude mice (20±2 g) were” for “nude mice (20+2 g) were”, “mg/kg. After 0.5 hour, and after 24 hours,” for “mg/kg. After 24 hours,”"}, "[2]": {"tested_on": "tight junction proteins Claudin-5/Occludin in bEnd.3 cells", "assay": "Claudin-5/Occludin immunofluorescence in physiological blood-brain barrier Transwell model after SC79", "assay_type": "cell-based", "details": "SC79 0, 5, 10 μg/mL, 24 hours", "procedure": "FIG. 8: In vitro dose-dependent down-regulation of expression of tight junction proteins Claudin-5/Occludin by SC79. A Transwell model of brain microvascular endothelial cells bEnd.3 was used to mimic the physiological blood-brain barrier. SC79 at different concentrations (0, 5 μg/mL, 10 μg/mL) was applied to the Transwell chamber. After 24 hours, the bEnd.3 cells on the membrane of the Transwell chamber were immunofluorescence stained.\nBrain microvascular endothelial cells bEnd.3 were used as model cells of a blood-brain barrier. 0.5 mL suspension of well-grown bEnd.3 cells was inoculated in the chamber of a 12-well Transwell plate with a pore size of 0.4 μm at a cell density of 1×10^5/well. 1.5 mL of fresh culture medium was supplemented in the outer chamber. The culture medium was refreshed every other day. Incubation was continued for 15 days at 37° C. and 5% CO2. When the cell transmembrane resistance value was greater than 150 ohm·cm^2 (Ω·cm^2), it may be regarded that a model of physiological blood-brain barrier was obtained.\nA protein kinase B activator SC79 at different concentrations (0, 5 μg/mL, 10 μg/mL) was added into the Transwell chamber in the model of physiological blood-brain barrier. […]"}, "neurons": {"tested_on": "neurons", "details": "mouse model of permanent local cerebral ischemia; cited from earlier work"}},
  "data": [
    {"smiles": "CCOC(=O)C1=C(N)Oc2ccc(Cl)cc2C1C(C#N)C(=O)OCC", "note": "(centres unmarked) [SC79]", "values": [
      {"measurement": "amount of Evans blue permeated into the brain", "setting": "[1]; SC79 5 mg/kg, 10 mg/kg tail vein, Evans blue after 24 hours, vs tumor-bearing control group", "value": "increased"},
      {"measurement": "amount of Evans blue permeated into the brain", "setting": "[1]; SC79 tail vein, Evans blue 0.5 hour after SC79", "value": "increased"},
      {"measurement": "amount of Evans blue permeated into the brain", "setting": "[1]; SC79 tail vein, Evans blue 24 hours after SC79", "value": "the highest"},
      {"measurement": "expression of tight junction proteins Claudin-5/Occludin", "setting": "[2]", "value": "promotes down-regulation of expression of tight junction proteins"},
      {"measurement": "survival of neurons", "setting": "neurons", "value": "increases the survival of neurons"}
    ]}
  ]
}
